Laboratory results as given in the CheMixHub viscosity set.

Experiment: xn = mol fraction of the nth substance listed

CCC(O)CO (stereo not drawn) + CCCCO
viscosity [mPa·s], 100 kPa
Settings | x2 = 0.101 | x2 = 0.2 | x2 = 0.302 | x2 = 0.4 | x2 = 0.5 | x2 = 0.501 | x2 = 0.601 | x2 = 0.701 | x2 = 0.801 | x2 = 0.901
298.15 K | 34.46 | 23.34 | 17.03 | 12.19 | 8.818 | – | 6.546 | 5.014 | 3.978 | 3.113
303.15 K | 25.85 | 17.61 | 13.14 | 10.08 | 7.482 | – | 5.629 | 4.383 | 3.441 | 2.757
308.15 K | 19.83 | 13.86 | 10.42 | 8.155 | 6.2 | – | 4.703 | 3.738 | 2.982 | 2.41
313.15 K | 15.54 | 10.92 | 8.434 | 6.703 | 5.179 | – | 3.992 | 3.217 | 2.596 | 2.122
318.15 K | 12.35 | 8.882 | 6.942 | 5.58 | – | 4.373 | 3.419 | 2.793 | 2.271 | 1.874
323.15 K | 9.916 | 7.286 | 5.744 | 4.694 | – | 3.724 | 2.942 | 2.417 | 1.989 | 1.66

CCCBr + c1ccccc1
308.15 K, 101 kPa
Settings | viscosity [mPa·s]
x2 = 0.1021 | 0.4369
x2 = 0.2992 | 0.4373
x2 = 0.3987 | 0.4413
x2 = 0.5041 | 0.4461
x2 = 0.6028 | 0.4525
x2 = 0.7033 | 0.4619
x2 = 0.8414 | 0.478
x2 = 0.8979 | 0.4898

CC(C)(C)O + C1COCCO1
298.15 K, 101 kPa
Settings | viscosity [mPa·s]
x2 = 0.0878 | 2.941
x2 = 0.1776 | 2.179
x2 = 0.2717 | 1.773
x2 = 0.3647 | 1.496
x2 = 0.4695 | 1.304
x2 = 0.571 | 1.197
x2 = 0.6659 | 1.134
x2 = 0.7778 | 1.114
x2 = 0.791 | 1.111
x2 = 0.8424 | 1.11
x2 = 0.8786 | 1.118

COCCOCCOCCOC + CCOC(C)=O
viscosity [mPa·s], 101.3 kPa
Settings | 298.15 K | 308.15 K | 318.15 K
x1 = 0.0071 | 0.436 | 0.391 | 0.358
x1 = 0.0233 | 0.454 | 0.406 | 0.369
x1 = 0.0549 | 0.488 | 0.434 | 0.395
x1 = 0.0836 | 0.522 | 0.464 | 0.417
x1 = 0.1198 | 0.564 | 0.498 | 0.447
x1 = 0.1684 | 0.626 | 0.548 | 0.489
x1 = 0.2665 | 0.752 | 0.651 | 0.574
x1 = 0.3217 | 0.833 | 0.717 | 0.624
x1 = 0.3905 | 0.931 | 0.796 | 0.69
x1 = 0.4265 | 0.985 | 0.841 | 0.725
x1 = 0.4683 | 1.058 | 0.895 | 0.769
x1 = 0.522 | 1.141 | 0.963 | 0.823
x1 = 0.5558 | 1.196 | 1.002 | 0.856
x1 = 0.6015 | 1.267 | 1.058 | 0.903
x1 = 0.6458 | 1.34 | 1.119 | 0.949
x1 = 0.725 | 1.479 | 1.223 | 1.028
x1 = 0.741 | 1.504 | 1.244 | 1.045
x1 = 0.7798 | 1.572 | 1.297 | 1.085
x1 = 0.8318 | 1.616 | 1.366 | 1.139
x1 = 0.8823 | 1.754 | 1.433 | 1.194
x1 = 0.9348 | 1.846 | 1.51 | 1.247
x1 = 0.9606 | 1.89 | 1.542 | 1.276

CCCCOC(=O)c1ccccc1 + CCCCCCC
viscosity [mPa·s], 101 kPa
Settings | x1 = 0.0994 | x1 = 0.1959 | x1 = 0.2964 | x1 = 0.3986 | x1 = 0.4963 | x1 = 0.5965 | x1 = 0.6954 | x1 = 0.7986 | x1 = 0.8973
298.15 K | 0.457 | 0.536 | 0.645 | 0.777 | 0.95 | 1.162 | 1.411 | 1.731 | 2.122
308.15 K | 0.41 | 0.476 | 0.571 | 0.686 | 0.811 | 0.978 | 1.176 | 1.413 | 1.727
318.15 K | 0.368 | 0.426 | 0.501 | 0.598 | 0.697 | 0.835 | 0.991 | 1.192 | 1.426

COCCOCCOCCO + CCOC(=O)OCC
298.15 K, 101.33 kPa
Settings | viscosity [mPa·s]
x1 = 0.0084 | 0.762
x1 = 0.017 | 0.775
x1 = 0.0385 | 0.809
x1 = 0.0758 | 0.874
x1 = 0.0923 | 0.905
x1 = 0.1232 | 0.967
x1 = 0.1538 | 1.035
x1 = 0.1917 | 1.126
x1 = 0.2331 | 1.242
x1 = 0.2893 | 1.408
x1 = 0.326 | 1.528
x1 = 0.3668 | 1.676
x1 = 0.41 | 1.845
x1 = 0.4336 | 1.944
x1 = 0.4506 | 2.027
x1 = 0.4939 | 2.224
x1 = 0.5117 | 2.316
x1 = 0.5615 | 2.578
x1 = 0.603 | 2.819
x1 = 0.676 | 3.303
x1 = 0.7411 | 3.785
x1 = 0.8077 | 4.364
x1 = 0.8846 | 5.15
x1 = 0.925 | 5.608

CC(C)(C)O + CC(C)O
303.2 K, 101.33 kPa
Settings | viscosity [mPa·s]
x2 = 0.05 | 3.297
x2 = 0.1 | 3.237
x2 = 0.15 | 3.172
x2 = 0.2 | 3.101
x2 = 0.3 | 2.931
x2 = 0.4 | 2.75
x2 = 0.5 | 2.572
x2 = 0.6 | 2.396
x2 = 0.7 | 2.224
x2 = 0.8 | 2.059
x2 = 0.85 | 1.979
x2 = 0.9 | 1.9
x2 = 0.95 | 1.831

CCNCC + CCCCCO
viscosity [mPa·s], 100 kPa
Settings | x1 = 0.0806 | x1 = 0.1601 | x1 = 0.236 | x1 = 0.3486 | x1 = 0.4399 | x1 = 0.5596 | x1 = 0.6501 | x1 = 0.7397 | x1 = 0.8494 | x1 = 0.9401
293.15 K | 3.45 | 2.94 | 2.51 | 1.92 | 1.52 | 1.09 | 0.833 | 0.645 | 0.476 | 0.373
303.15 K | 2.61 | 2.22 | 1.87 | 1.43 | 1.12 | 0.79 | 0.618 | 0.496 | 0.386 | 0.323
313.15 K | 2 | 1.7 | 1.43 | 1.09 | 0.847 | 0.594 | 0.47 | 0.38 | 0.317 | 0.28
323.15 K | 1.54 | 1.31 | 1.09 | 0.83 | 0.64 | 0.45 | 0.357 | 0.3 | 0.261 | 0.245
